The structures appear in SMILES notation.

The data set can be described thus: method code SF-AS, from DOI: 10.1002/zfch.19810211114.
As for `CCCNC(=O)NN`, the logP (in general, the decadic logarithm of the partition coefficient of the neutral form, usually between octanol and water) was -1.1. To `CCNC(=O)NN` belongs -1.62; to `CC(C)(C)NC(=O)NN`, -0.81. To `CCCCCCNC(=O)NN` belongs 0.46; to `CCCCCNC(=O)NN`, -0.04. As for `NNC(N)=O`, the figure is -2.75; as for `NNC(=O)NC1CCCCC1`, 0.15.

`NNC(=O)NCc1ccccc1` yielded a lipophilicity (logP) of -0.22. To `CNC(=O)NN` belongs -2.2. As for `CN(C)C(=O)NN`, the figure is -1.57. As for `CC(C)CNC(=O)NN`, the figure is -0.84. In turn, `CCCCNC(=O)NN` returned a logP of -0.6.

The molecule `CC(C)NC(=O)NN` displayed a logP of -1.3. As for `CCN(CC)C(=O)NN`, the figure is -0.62; as for `C=CCNC(=O)NN`, -1.55.

The values above are taken from the SangsterLogP compilation.
